Measured values: article PMC4838890, “Dynamic and flexible H3K9me3 bridging via HP1β dimerization establishes a plastic state of condensed chromatin” (Nature Communications, 2016)

How the values were obtained:
[1] = molecular target: H3KC9me3 oligonucleosome; assay: ITC, H3KC9me3 oligonucleosome; assay type: binding, Xenopus laevis; conditions: for Kd: read-out: Kd (apparent dissociation constant)
From the text: Mononucleosomes were reconstituted on a 187 bp DNA fragment containing the ‘601' sequence flanked on each site by a linker of 20 bp[55]. Oligonucleosomes were reconstituted on a 12 × 200 bp × 601 template. Plasmids carrying the respective inserts were purified using a Giga kit (Qiagen, Hilden, Germany). Templates for reconstitution were released from plasmids by restriction digest with BsoBI for mononucleosomes and a mix of DdeI, BfuCI, HaeII and EcoRI for oligonucleosomes. To separate vector backbone from DNA used for chromatin assembly stepwise precipitation with polyethylene glycol (PEG) 6000/0.5 M NaCl was carried out (final PEG concentration 2–9% and 20% (w/v)). DNA pellets were washed with 70% (v/v) ethanol and dissolved in water. Double stranded, short, biotinylated DNA linkers were ligated to the DNA template before chromatin reconstitution.
ITC measurements were performed on a iTC200 calorimeter (Microcal, Malvern, UK) at 25°C in binding buffer (10 mM triethanolamine (pH 7.5), 20 or 150 mM NaCl, 0.1 mM EDTA). Reaction heats were recorded by sequences of 37 injections of 1.8 mM hHP1β, spaced at 120 s intervals, into 250 μl of 60 μM H3 peptides, nucleosomes or oligonucleosomal arrays under constant stirring at 1,000 r.p.m. (injection #1–10: 0.5 μl each; injection #11–32: 1 μl each; injection #33–37: 2 μl each). Heats of dilution, obtained by the titration of hHP1β into buffer, were substracted from raw data before analysis. Raw data were integrated, normalized and the apparent heat change (Δq) of the reaction was plotted against the molecular ratio using the Origin software. For the determination of apparent enthalpy changes (ΔHapp), the molar association constant (KA), and the stoichiometry (n) of the interaction, non-linear least-square fitting of the Δq values was performed by the Origin software using a binding model of one set of identical binding sites.
Figure S4 Hiragami-Hamada et al. […]
Supplementary Figure 4: Quantitative analysis of interaction of hHP1β with H3K9me3-peptides and
(a) ITC measurements of H3K9me3-peptide/hHP1β WT interaction at 20 mM NaCl (left) and 150 mM
NaCl (right). Upper panels, raw data of heat release upon stepwise injection of recombinant protein into
solution of peptide; lower panels, plots of integrated heats of protein injections vs. molar ratio of hHP1β
WT per peptide calculated by MicroCal software. Injections #1-10: 0.5 µl; injections #11-32: 1 µ l;
(b) ITC measurements as in (a) but with H3K C9me3- oligonucleosomal arrays. […]

[2] = test system: chromatin reporter array in U2OS cells; assay: Chromatin reporter array (LacO) unfolding; assay type: cell-based; conditions: doxycycline 1 μg ml^−1 24 h, LacI-tethered, n>300
From the text: Figure 7 hHP1β dimerization is required for maintaining condensed cellular chromatin states. (a) Schematic diagram of the transgene system used to test chromatin compaction effects of hHP1β. A tandem array of the construct has been integrated into the genome of U2OS mammalian cells. Dox, doxycycline; rtTA, reverse tetracycline-controlled TET-VP16 transactivator, whose binding to tetracycline responsive elements (RE) is activated by doxycycline. (b) Together with mCherry-LacI, the indicated fusion proteins were transiently expressed in U2OS cells containing the chromatin reporter array as described in a. Representative confocal images in the absence or after induction of transcription from the array with doxycycline (Dox) are shown. DNA was stained with DAPI. Inlets show enlarged chromatin reporter array; scale bar, 10 μm. (c) Quantification of the results shown in b together with results of similar experiments using additional hHP1β mutant proteins. Averages of three independent experiments are plotted; error bars represent s.d.; n>300 for each condition; asterisks represent P<0.05 according to Student's t-test.
U2OS 2-6-3 CLTon cells[38] were kindly provided by Dr Supriya Prasanth (University of Illinois, IL, USA) and maintained in DMEM (high glucose+GlutaMax) (GIBCO/Invitrogen, Darmstadt, Germany) supplemented with 10% (v/v) TET system approved fetal bovine serum (Clontech, Saint-Germain-en-Laye, France), 50 μg ml^−1 hygromycin (Carl Roth, Karlsruhe, Germany) and 200 μg ml^−1 G418 (Clontech, Saint-Germain-en-Laye, France). For fluorescence microscopy, cells were grown on coverslips in a six-well plate without antibiotics. 500 ng plasmid DNA was transfected using Lipofectamine LTX and Plus reagent (Invitrogen, Darmstadt, Germany). 20 h post transfection, cells were treated with 1 μg ml^−1 doxycycline for 24 h for induction of rtTA expression. Cells were washed twice with PBS and fixed with 3.7% (v/v) formaldehyde/PBS for 10 min at RT. […] P values (according to Student's t-test) were calculated using GraphPad QuickCals (GraphPad, CA, USA).

Substance | Kd (apparent dissociation constant) ([1]; 20 mM NaCl, pH 7.5, 25°C, NB, not binding) | Kd ([1]; 150 mM NaCl, pH 7.5, 25°C) [µM] | unfolding of the array on activation [2] | reduced interaction with H3KC9me3 oligonucleosomes compared with hHP1β WT ([1]; 150 mM NaCl) [fold]
hHP1β WT: recombinant human heterochromatin protein 1β (GenBank NM_001127228), 185 aa | could not detect any binding | 11 ± 2 | largely reduced | –
hHP1β I161A: CSD point mutant of hHP1β incapable of dimerization | – | 132 ± 24 | largely reduced by tethering of LacI-YFP-hHP1β WT but not the dimerization deficient I161A mutant | 12
